Data as given in patent US11584755B2 (IDEAYA BIOSCIENCES, INC., priority 2017, dated 2023).

Tests used:
Format in all cases: biochemical
[1] = target: hFEN1 (Homo sapiens (Human), UniProt P39748); assay: Enzymatic IC50 assay, FAM-labeled DNA oligomer substrate, fluorescence intensity (FEN1); conditions: hFEN1 70 pM, substrate 100 nM, reaction time 20 minutes, 23° C.
How it was run: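 FEN1, EXO1 or XPG was preincubated 15 min with compound, then the FAM-labelled DNA oligomer substrate was added in Tris-HCl pH 8.0 with 10 mM MgCl2 at 23° C. FEN1 was 70 pM with 100 nM substrate for 20 min, EXO1 6 nM with 30 nM for 60 min, and XPG 100 nM with 100 nM for 120 min. Reactions were EDTA-stopped and read by fluorescence intensity.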

[2] = target: hEXO1, Isoform1 (Homo sapiens (Human), UniProt Q9UQ84); assay: Enzymatic IC50 assay, FAM-labeled DNA oligomer substrate, fluorescence intensity (EXO1); conditions: hEXO1 6 nM, substrate 30 nM, reaction time 60 minutes, 23° C.
Chain of hEXO1, Isoform1 (Q9UQ84 whole entry, canonical isoform): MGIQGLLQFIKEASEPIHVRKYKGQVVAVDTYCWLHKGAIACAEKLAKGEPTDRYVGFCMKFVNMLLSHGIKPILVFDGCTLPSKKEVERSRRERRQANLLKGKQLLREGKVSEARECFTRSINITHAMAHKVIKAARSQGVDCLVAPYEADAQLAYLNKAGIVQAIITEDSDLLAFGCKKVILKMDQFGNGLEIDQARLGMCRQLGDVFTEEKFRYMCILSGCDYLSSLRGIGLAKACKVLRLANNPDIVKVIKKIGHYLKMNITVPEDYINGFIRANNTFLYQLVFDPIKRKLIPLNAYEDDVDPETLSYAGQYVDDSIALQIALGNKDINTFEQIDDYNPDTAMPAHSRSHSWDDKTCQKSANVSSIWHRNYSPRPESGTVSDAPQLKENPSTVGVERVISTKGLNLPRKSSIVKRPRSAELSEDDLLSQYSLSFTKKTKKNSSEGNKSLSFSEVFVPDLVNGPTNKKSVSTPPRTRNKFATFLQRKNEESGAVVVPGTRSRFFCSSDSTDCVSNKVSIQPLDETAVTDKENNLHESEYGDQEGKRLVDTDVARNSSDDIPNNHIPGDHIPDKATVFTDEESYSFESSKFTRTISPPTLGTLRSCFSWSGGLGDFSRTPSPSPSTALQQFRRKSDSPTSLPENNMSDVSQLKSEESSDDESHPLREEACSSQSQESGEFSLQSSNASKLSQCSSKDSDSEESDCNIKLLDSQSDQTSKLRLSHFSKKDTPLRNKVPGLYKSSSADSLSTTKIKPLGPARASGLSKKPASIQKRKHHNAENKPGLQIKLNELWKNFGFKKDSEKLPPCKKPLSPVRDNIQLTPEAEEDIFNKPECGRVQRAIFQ
Procedure: (§1) FEN1, EXO1 or XPG enzyme was incubated with compound or vehicle (DMSO) and the FAM-labeled DNA oligomer substrate in a microtiter plate. The stop buffer contains EDTA to stop the enzymatic reaction. The plate is read for fluorescence intensity. The high control (DMSO) with high fluorescence intensity represents no inhibition of enzymatic reaction while the low control (10 μM) with low fluorescence intensity represents full inhibition of enzymatic reaction.
(§2) • FEN1 • hFEN1: 70 pM • Substrate: 100 nM • Reaction time: 20 minutes • EXO1 • hEXO1: 6 nM, Isoforml • Substrate: 30 nM • Reaction time: 60 minutes • XPG • hXPG: 100 nM • Substrate: 100 nM • Reaction time: 120 minutes
(§3) Annealing Buffer: 50 mM Tris-HCl, 50 mM NaCl, 1 mM DTT Assay buffer: 50 mM Tris-HCl pH 8.0, 10 mM MgCl2, 0.01% BSA, 1 mM DTT Stop buffer: 50 mM EDTA in assay buffer Temperature: 23° C. Total volume: 40 μl Controls: • 0% inhibition control: DMSO • 100% inhibition control: 10 μM (final) 5-chloro-3-hydroxy-1,3-dihydroquinazoline-2,4-dione Enzyme Reaction and Detection: • 1. Prepare 25 μM intermediate stock of the substrate by diluting SEQ ID NO:1, SEQ ID NO:2, and SEQ ID NO:3 in annealing buffer, in a PCR tube. • 2. Place the PCR tube on a heat block, heat at 95° C. for 3 minutes, then drop in 0.2° C. increments over 2 minutes, stopping at 25° C. • 3. Remove the tube and let the tube cool at room temperature. • 4. Transfer 10 μL of 3× final concentration test compounds or DMSO to the appropriate wells of a microtiter plate. • 5. Transfer 10 μL of 3× final concentration enzyme in assay buffer or assay buffer alone to the appropriate wells. • 6. Incubate the plate at room temperature for 15 minutes. • 7. Transfer 10 μL of 3× substrate in assay buffer to all the test wells. • 8. Incubate the plate at room temperature for prescribed reaction time. • 9. Centrifuge the plate at 1000 rpm for 1 minute. • 10. Transfer 10 μL of stop buffer to all the test wells. • 11. Centrifuge the plate at 1000 rpm for 1 minute. • 12. Read the plate on a plate reader.

[3] = target: hXPG (Homo sapiens (Human), UniProt P28715); assay: Enzymatic IC50 assay, FAM-labeled DNA oligomer substrate, fluorescence intensity (XPG); conditions: hXPG 100 nM, substrate 100 nM, reaction time 120 minutes, 23° C.
Chain of hXPG (P28715 whole entry): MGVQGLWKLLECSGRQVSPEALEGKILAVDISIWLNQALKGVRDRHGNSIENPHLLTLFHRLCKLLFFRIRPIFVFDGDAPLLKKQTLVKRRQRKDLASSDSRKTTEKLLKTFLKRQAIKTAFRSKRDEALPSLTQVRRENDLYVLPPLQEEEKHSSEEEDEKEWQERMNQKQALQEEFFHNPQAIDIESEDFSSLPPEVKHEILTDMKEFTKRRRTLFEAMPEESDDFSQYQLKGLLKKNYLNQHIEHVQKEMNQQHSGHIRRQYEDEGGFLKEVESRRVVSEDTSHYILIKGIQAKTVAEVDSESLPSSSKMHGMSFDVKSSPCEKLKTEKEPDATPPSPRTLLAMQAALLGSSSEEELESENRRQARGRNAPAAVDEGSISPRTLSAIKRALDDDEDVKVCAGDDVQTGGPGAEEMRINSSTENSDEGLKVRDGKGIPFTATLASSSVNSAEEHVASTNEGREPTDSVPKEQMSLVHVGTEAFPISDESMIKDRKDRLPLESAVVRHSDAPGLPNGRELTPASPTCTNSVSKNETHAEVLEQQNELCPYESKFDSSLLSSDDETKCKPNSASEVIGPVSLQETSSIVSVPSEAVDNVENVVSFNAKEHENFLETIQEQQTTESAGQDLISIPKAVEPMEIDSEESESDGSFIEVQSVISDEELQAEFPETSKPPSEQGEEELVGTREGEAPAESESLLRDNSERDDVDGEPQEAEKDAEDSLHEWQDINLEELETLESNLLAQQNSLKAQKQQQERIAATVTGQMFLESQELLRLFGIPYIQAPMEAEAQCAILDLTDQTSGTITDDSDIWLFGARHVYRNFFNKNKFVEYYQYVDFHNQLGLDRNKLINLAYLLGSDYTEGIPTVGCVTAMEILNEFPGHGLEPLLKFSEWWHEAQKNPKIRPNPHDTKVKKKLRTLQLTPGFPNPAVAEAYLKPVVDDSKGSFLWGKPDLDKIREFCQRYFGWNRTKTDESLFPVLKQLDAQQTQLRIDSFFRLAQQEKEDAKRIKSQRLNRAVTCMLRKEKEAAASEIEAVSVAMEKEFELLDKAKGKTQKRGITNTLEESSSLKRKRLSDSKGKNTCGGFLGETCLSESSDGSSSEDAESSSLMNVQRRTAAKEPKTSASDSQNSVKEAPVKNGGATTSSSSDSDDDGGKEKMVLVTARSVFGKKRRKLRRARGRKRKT
Procedure: as §1, §2, §3

Chain of hFEN1 (P39748 whole entry): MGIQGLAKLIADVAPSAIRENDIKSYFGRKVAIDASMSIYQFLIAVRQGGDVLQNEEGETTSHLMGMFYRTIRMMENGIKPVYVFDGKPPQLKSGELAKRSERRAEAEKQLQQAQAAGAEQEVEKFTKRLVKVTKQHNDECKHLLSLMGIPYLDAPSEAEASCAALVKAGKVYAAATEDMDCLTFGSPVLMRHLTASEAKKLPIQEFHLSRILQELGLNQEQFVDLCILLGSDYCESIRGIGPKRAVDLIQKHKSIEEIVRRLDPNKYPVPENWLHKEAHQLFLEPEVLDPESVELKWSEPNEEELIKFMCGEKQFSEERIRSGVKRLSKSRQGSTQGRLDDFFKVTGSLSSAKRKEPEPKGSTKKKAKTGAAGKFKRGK

| SMILES | IC50 [1] | IC50 [2] | IC50 [3] |
| --- | --- | --- | --- |
| O=C(O)c1c(O)c(=O)n(Cc2cccc3nonc23)c2ccsc12 [Example 72, 4-(benzo[c][1,2,5]oxadiazol-4-ylmethyl)-6-hydroxy-5-oxo-4,5-dihydrothieno[3,2-b]pyridine-7-carboxylic acid] | 2250 to 10000 nM | 2250 to 10000 nM |  |
| CC(=O)N1CCCC(Cn2c(=O)c(O)c(C(=O)O)c3sccc32)C1 (stereo not drawn) [Example 49, 4-((1-acetylpiperidin-3-yl)methyl)-6-hydroxy-5-oxo-4,5-dihydrothieno[3,2-b]pyridine-7-carboxylic acid] | 2250 to 10000 nM | 2250 to 10000 nM |  |
| O=C(O)c1c(O)c(=O)n(CC2CCCC2)c2ccsc12 [Example 45, 4-(cyclopentylmethyl)-6-hydroxy-5-oxo-4,5-dihydrothieno[3,2-b]pyridine-7-carboxylic acid] | 2250 to 10000 nM | 2250 to 10000 nM |  |
| CNC(=O)c1cccc(Cn2c(=O)c(O)c(C(=O)O)c3sccc32)c1 [Example 66, 6-hydroxy-4-[3-(methylcarbamoyl)benzyl]-5-oxo-4,5-dihydrothieno[3,2-b]pyridine-7-carboxylic acid] | 2250 to 10000 nM | 2250 to 10000 nM |  |
| Cc1nc(Cn2c(=O)c(O)c(C(=O)O)c3sccc32)co1 [Example 96, 6-hydroxy-4-((2-methyloxazol-4-yl)methyl)-5-oxo-4,5-dihydrothieno[3,2-b]pyridine-7-carboxylic acid] | > 10000 nM | > 10000 nM |  |
| N#Cc1ccc(Cn2c(=O)c(O)c(C(=O)O)c3sccc32)cc1 [Example 48, 4-(4-cyanobenzyl)-6-hydroxy-5-oxo-4,5-dihydrothieno[3,2-b]pyridine-7-carboxylic acid] | 2250 to 10000 nM | 2250 to 10000 nM |  |
| Cc1nc(Cn2c(=O)c(O)c(C(=O)O)c3sccc32)cs1 [Example 92, 6-hydroxy-4-[(2-methylthiazol-4-yl)methyl]-5-oxo-4,5-dihydrothieno[3,2-b]pyridine-7-carboxylic acid] | 2250 to 10000 nM | > 10000 nM |  |
| O=C(O)c1c(O)c(=O)n(Cc2cnc(-c3cccc4ncccc34)s2)c2ccsc12 [Example 169, 6-hydroxy-5-oxo-4-{[2-(quinolin-5-yl)thiazol-5-yl]methyl}-4,5-dihydrothieno[3,2-b]pyridine-7-carboxylic acid] | 2250 to 10000 nM | 750 to 2250 nM |  |
| O=C(O)c1c(O)c(=O)n(Cc2cnc(-c3cccc4cnccc34)s2)c2ccsc12 [Example 168, 6-hydroxy-4-{[2-(isoquinolin-5-yl)thiazol-5-yl]methyl}-5-oxo-4,5-dihydrothieno[3,2-b]pyridine-7-carboxylic acid] | 2250 to 10000 nM | 2250 to 10000 nM |  |
| Cn1cc(Cn2c(=O)c(O)c(C(=O)O)c3sccc32)c(-c2ccccc2)n1 [Example 158, 6-hydroxy-4-[(1-methyl-3-phenyl-1H-pyrazol-4-yl)methyl]-5-oxo-4,5-dihydrothieno[3,2-b]pyridine-7-carboxylic acid] | 2250 to 10000 nM | 750 to 2250 nM |  |
| Cn1ncc(Cn2c(=O)c(O)c(C(=O)O)c3sccc32)c1-c1ccccc1 [Example 160, 6-hydroxy-4-[(1-methyl-5-phenyl-1H-pyrazol-4-yl)methyl]-5-oxo-4,5-dihydrothieno[3,2-b]pyridine-7-carboxylic acid] | > 10000 nM | > 10000 nM |  |
| O=C(O)c1c(O)c(=O)n(Cc2cnc3c(-c4ccncc4)cccn23)c2ccsc12 [Example 31, 6-hydroxy-5-oxo-4-{[8-(pyridin-4-yl)imidazo[1,2-a]pyridin-3-yl]methyl}-4,5-dihydrothieno[3,2-b]pyridine-7-carboxylic acid] | 2250 to 10000 nM | 2250 to 10000 nM |  |
| COc1cc(-c2cccn3c(Cn4c(=O)c(O)c(C(=O)O)c5sccc54)cnc23)ccn1 [Example 165, 6-hydroxy-4-{[8-(2-methoxypyridin-4-yl)imidazo[1,2-a]pyridin-3-yl]methyl}-5-oxo-4,5-dihydrothieno[3,2-b]pyridine-7-carboxylic acid] | 750 to 2250 nM | 750 to 2250 nM |  |

Now from value to molecule:

| IC50 [1] | IC50 [2] | IC50 [3] | SMILES |
| --- | --- | --- | --- |
| 250 to 750 nM | 250 to 750 nM |  | CS(=O)(=O)c1ccc(-c2ncc(Cn3c(=O)c(O)c(C(=O)O)c4sccc43)s2)cc1 [Example 166, 6-hydroxy-4-({2-[4-(methylsulfonyl)phenyl)thiazol-5-yl)methyl)-5-oxo-4,5-dihydrothieno[3,2-b]pyridine-7-carboxylic acid] |
| 250 to 750 nM | 750 to 2250 nM |  | COc1ccc(-n2cc(Cn3c(=O)c(O)c(C(=O)O)c4sccc43)c(Br)n2)cc1 [Example 161, 4-{[3-bromo-1-(4-methoxyphenyl)-1H-pyrazol-4-yl]methyl}-6-hydroxy-5-oxo-4,5-dihydrothieno[3,2-b]pyridine-7-carboxylic acid] |
| 750 to 2250 nM | 2250 to 10000 nM |  | Cc1nn(C)cc1Cn1c(=O)c(O)c(C(=O)O)c2sccc21 [Example 162, 4-[(1,3-dimethyl-1H-pyrazol-4-yl)methyl]-6-hydroxy-5-oxo-4,5-dihydrothieno[3,2-b]pyridine-7-carboxylic acid] |
| 250 to 750 nM | 750 to 2250 nM |  | COc1ccc(-c2ncc(Cn3c(=O)c(O)c(C(=O)O)c4sccc43)s2)cc1 [Example 32, 6-hydroxy-4-{[2-(4-methoxyphenyl)thiazol-5-yl]methyl}-5-oxo-4,5-dihydrothieno[3,2-b]pyridine-7-carboxylic acid] |
| < 200 nM |  | 2250 to 10000 nM | O=C(O)c1c(O)c(=O)n(Cc2cnn(Cc3ncc4ccccn34)c2)c2ccsc12 [Example 142] |
| 750 to 2250 nM | 750 to 2250 nM |  | O=C(O)c1c(O)c(=O)n(Cc2cnc(-c3ccnc4ccccc34)s2)c2ccsc12 [Example 170, 6-hydroxy-5-oxo-4-{[2-(quinolin-4-yl)thiazol-5-yl]methyl}-4,5-dihydrothieno[3,2-b]pyridine-7-carboxylic acid] |
| 250 to 750 nM | 2250 to 10000 nM |  | O=C(O)c1c(O)c(=O)n(Cc2cccc([N+](=O)[O-])c2)c2ccsc12 [Example 6, 6-hydroxy-4-[(3-nitrophenyl)methyl]-5-oxo-thieno[3,2-b]pyridine-7-carboxylic acid] |
| 250 to 750 nM | 2250 to 10000 nM |  | CCOC(=O)c1c(O)c(=O)n(Cc2ccc(N)cc2)c2ccsc12 [Example 41, ethyl 4-(4-aminobenzyl)-6-hydroxy-5-oxo-4,5-dihydrothieno[3,2-b]pyridine-7-carboxylate] |
| < 200 nM | 2250 to 10000 nM |  | Nc1ccc(Cn2c(=O)c(O)c(C(=O)O)c3sccc32)cn1 [Example 97, 4-[(6-aminopyridin-3-yl)methyl]-6-hydroxy-5-oxo-4,5-dihydrothieno[3,2-b]pyridine-7-carboxylic acid] |
| < 200 nM | 2250 to 10000 nM |  | O=C(O)Cn1cc(Cn2c(=O)c(O)c(C(=O)O)c3sccc32)cn1 [Example 163, 4-{[1-(carboxymethyl)-1H-pyrazol-4-yl]methyl}-6-hydroxy-5-oxo-4,5-dihydrothieno[3,2-b]pyridine-7-carboxylic acid] |
| 250 to 750 nM | 250 to 750 nM |  | O=C(O)c1c(O)c(=O)n(Cc2cnc3c(Br)cccn23)c2ccsc12 [Example 164, 4-[(8-bromoimidazo[1,2-a]pyridin-3-yl)methyl]-6-hydroxy-5-oxo-4,5-dihydrothieno[3,2-b]pyridine-7-carboxylic acid] |
| 250 to 750 nM | 2250 to 10000 nM |  | O=C(O)c1c(O)c(=O)n(Cc2ccccc2[N+](=O)[O-])c2ccsc12 [Example 37, 6-hydroxy-4-(2-nitrobenzyl)-5-oxo-4,5-dihydrothieno[3,2-b]pyridine-7-carboxylic acid] |
| < 200 nM | 750 to 2250 nM |  | COc1ccc(Cn2c(=O)c(O)c(C(=O)O)c3sccc32)cc1Cl [Example 70, 4-(3-chloro-4-methoxybenzyl)-6-hydroxy-5-oxo-4,5-dihydrothieno[3,2-b]pyridine-7-carboxylic acid] |
| < 200 nM | 750 to 2250 nM |  | CS(=O)(=O)Nc1ccc(-c2ncc(Cn3c(=O)c(O)c(C(=O)O)c4sccc43)s2)cc1 [Example 167, 6-hydroxy-4-({2-[4-(methylsulfonamido)phenyl]thiazol-5-yl}methyl)-5-oxo-4,5-dihydrothieno[3,2-b]pyridine-7-carboxylic acid] |
